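Assay format: 96-well plates, 48-hour exposure. The concentration for 50% growth inhibition is given as GI50. TGI is the concentration that stops growth completely.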
Assays:
Experiment in all cases: NCI-60 cell line screen, 48 h
[1] = test system: TK-10 renal
[2] = test system: IGROV1 ovarian
[3] = test system: DU-145 prostate
[4] = test system: HS 578T breast
[5] = test system: MDA-MB-231 breast
[6] = test system: MOLT-4 leukemia
[7] = test system: CCRF-CEM leukemia
[8] = test system: OVCAR-3 ovarian
[9] = test system: 786-0 renal
[10] = test system: NCI-H23 lung

SMILES	GI50 [1]	TGI [1]	GI50 [2]	TGI [2]	GI50 [3]	TGI [3]	GI50 [4]	TGI [4]	GI50 [5]	TGI [5]	GI50 [6]	TGI [6]	GI50 [7]	TGI [7]	GI50 [8]	TGI [8]	GI50 [9]	TGI [9]	TGI [10]	GI50 [10]
CCN(C(=O)CCl)C(C)(C)C(SSSC(c1ccc(Cl)cc1)C(C)(C)N(CC)C(=O)CCl)c1ccc(Cl)cc1 (centres undefined)	2.5 µM	7.92 µM	10.9 µM	31.5 µM	11.5 µM	24.2 µM	3.36 µM	18.8 µM	3.58 µM	14.6 µM	4.46 µM	13.9 µM	2.45 µM	5.93 µM	8.46 µM	21.6 µM	13.6 µM	31.2 µM		
O=C1[C@@H]2C3SC(c4ccccc43)[C@@H]2C(=O)N1c1ccccc1		> 100 µM		> 100 µM								> 100 µM		> 100 µM		> 100 µM		> 100 µM	> 100 µM	
O=C(CC(=O)Nc1ccccc1O)Nc1ccccc1O		> 100 µM		> 100 µM								> 100 µM		> 100 µM		46 µM		36 µM	64.3 µM	
ICCC(c1ccccc1)(c1ccccc1)c1ccccc1	14 µM	30.7 µM	4.17 µM	16.6 µM	10.1 µM	21.6 µM			4.41 µM	19.8 µM	2.57 µM	8.97 µM	3.56 µM	16.3 µM	3.85 µM	15 µM	3.75 µM	14.1 µM	31 µM	13.4 µM
COc1cc2ccnc3c2c(c1OC)-c1ccc(=O)ccc1-3	35.1 µM	83.5 µM	47 µM	> 100 µM	28.8 µM	> 100 µM	36.6 µM	> 100 µM	26.9 µM	> 100 µM	3.6 µM	18.7 µM	13.7 µM	41.7 µM	21.8 µM	56.2 µM	22.4 µM	> 100 µM		
Nc1ccc2c(c1)CC1c3ccccc3C(C2)c2ccccc21		> 100 µM		> 100 µM								> 100 µM		> 100 µM				> 100 µM		
Nc1c(C(=O)c2cccc(C#CCN3CCOCC3)c2)cnn1-c1ccc(F)cc1	> 23.4 µM	> 25 µM	> 17.2 µM	> 25 µM	> 25 µM	> 25 µM	> 25 µM	> 25 µM	> 25 µM	> 25 µM	> 25 µM	> 25 µM			> 23.1 µM	> 25 µM	> 25 µM	> 25 µM	> 25 µM	> 25 µM
C[C@]12CCC3c4ccc(O)cc4CCC3C1Cc1ccc(O)cc12 (some centres undefined)	13.6 µM	40.2 µM	9.72 µM	26.1 µM	11.5 µM	28.5 µM	5.87 µM	42.6 µM	7.44 µM	22.2 µM		0.478 µM	4.14 µM	17.2 µM	5.71 µM	26.5 µM	5.22 µM	18.1 µM		
N#CSCc1c(Cl)cccc1Cl	4.51 µM	> 29.2 µM	2.69 µM	7.2 µM	2.74 µM	5.71 µM	3.04 µM	8.26 µM	3.43 µM	> 63.5 µM			0.323 µM	> 43.8 µM	2.39 µM	5.18 µM	5.57 µM	> 100 µM	> 100 µM	5.41 µM
Cc1ccccc1NC(=O)C1C(=O)N(c2ccccc2C)C(=O)/C1=N\N (centres undefined)				> 100 µM								> 100 µM		> 100 µM		> 100 µM		> 100 µM	> 100 µM	
Nc1nc(N)c(N=O)c(Nc2ccc(I)cc2)n1		62.1 µM		25.8 µM								65.9 µM		89.9 µM		43.7 µM		> 100 µM	82.5 µM	
O=C(OCC1OC(OC(=O)c2cc(O)c(O)c(OC(=O)c3cc(O)c(O)c(O)c3)c2)C(OC(=O)c2cc(O)c(O)c(OC(=O)c3cc(O)c(O)c(O)c3)c2)C(OC(=O)c2cc(O)c(O)c(OC(=O)c3cc(O)c(O)c(O)c3)c2)C1OC(=O)c1cc(O)c(O)c(OC(=O)c2cc(O)c(O)c(O)c2)c1)c1cc(O)c(O)c(OC(=O)c2cc(O)c(O)c(O)c2)c1 (centres undefined)	7.46 µM	28.2 µM			14.8 µM	> 50 µM			9.85 µM	36.7 µM	41.3 µM	> 50 µM	18.2 µM	> 50 µM	9.99 µM	31.2 µM	46.9 µM	> 50 µM	> 50 µM	18.9 µM
COc1cc(C(=O)C/C(CCC(=O)Nc2ccc(Cl)cc2Cl)=N/NC(=O)C(N)=O)ccc1O		> 100 µM		> 100 µM								> 100 µM		> 100 µM		> 100 µM		> 100 µM	> 100 µM	
COc1cc2c(c(OC)c1OC)-c1ccc(SC)c(=O)cc1[C@@H](NCc1cccc(C#N)c1)CC2	16.2 µM	> 75 µM	< 0.0075 µM	> 75 µM							< 0.0075 µM	69.2 µM	< 0.0075 µM	6.16 µM		0.0493 µM	< 0.0075 µM	20.9 µM	< 0.0075 µM	
CC(=O)Nc1ccccc1-c1cnc2ccccc2n1		> 100 µM		> 100 µM								> 100 µM		> 100 µM		> 100 µM		> 100 µM	> 100 µM	
Cc1ccc(NC(=O)CC/C(CC(=O)c2ccc(F)cc2)=N\NC(=O)C(=O)NN)cc1C		> 100 µM		> 100 µM										> 100 µM		> 100 µM		> 100 µM	> 100 µM	
O=C(/C=C/c1ccccc1O)c1cccnc1		> 100 µM		> 100 µM								> 100 µM		> 100 µM		> 100 µM		> 100 µM	> 100 µM	
CCOC(=O)C(Cc1ccccc1)NC(=O)OC(C)(C)C (centres undefined)		> 100 µM		> 100 µM								> 100 µM		> 100 µM		> 100 µM		> 100 µM	> 100 µM	
CO/N=C(/COc1c(-c2ccccc2)oc2ccccc2c1=O)c1ccc(OC)cc1	> 100 µM	> 100 µM	> 100 µM	> 100 µM	> 100 µM	> 100 µM	> 100 µM	> 100 µM	31.3 µM	> 100 µM			60 µM	> 100 µM	> 100 µM	> 100 µM	> 100 µM	> 100 µM	> 100 µM	> 100 µM

Source: PubChem BioAssay (NCI)
